These results are taken from PubChem BioAssay (NCI).

Test systems include HOP-62 NSCLC; UACC-62 melanoma; ACHN renal; SK-OV-3 ovarian; NCI-H522 lung; OVCAR-3 ovarian; HT29 colon; M19-MEL melanoma; PC-3 prostate; MOLT-4 leukemia; UO-31 renal; NCI-H23 lung; NCI/ADR-RES ovarian; OVCAR-4 ovarian; NCI-H226 lung; KM20L2 colon; RPMI-8226 leukemia; SF-539 CNS; SW-620 colon; MDA-N.
What all share (experiment): growth of human tumour cells (NCI), 48 h

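All cell lines were grown in 96-well plates and treated with compound for 48 hours. At the TGI there is no net growth.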 Some results are limits rather than exact numbers.

In the case of `CN(C)CC1(Cc2ccccc2)CCC(Cc2ccccc2)C1=O` (stereo unspecified), the TGI in the test on HOP-62 NSCLC amounted to 33 µM; with UACC-62 melanoma, 32.5 µM; in the test with ACHN renal it was 29.7 µM; in the test on SK-OV-3 ovarian, 36.4 µM; with NCI-H522 lung it was 7.59 µM; with OVCAR-3 ovarian, 16.2 µM. Besides, the TGI in the test on HT29 colon was determined as 28.6 µM; in the test with M19-MEL melanoma it was 32 µM; in the test with PC-3 prostate it was 22.9 µM; with MOLT-4 leukemia, 9.11 µM; with UO-31 renal, 30.7 µM; with NCI-H23 lung it was 36.1 µM. Also, the TGI was 40 µM in the test with NCI/ADR-RES ovarian; 31 µM in the test on OVCAR-4 ovarian; 37.9 µM with NCI-H226 lung; 32.4 µM in the test with KM20L2 colon; 6.84 µM with RPMI-8226 leukemia; 33.5 µM in the test with SF-539 CNS. The TGI turned out to be 11.1 µM with SW-620 colon and 25 µM in the test with MDA-N.
As to `CSc1nc2c(c(O)c(C)c(=O)n2C2OCC(OC(C)=O)C(OC(C)=O)C2OC(C)=O)c(=O)n1C` (stereo unspecified), the TGI with HOP-62 NSCLC, in the test on UACC-62 melanoma, in the test on ACHN renal, in the test on SK-OV-3 ovarian, in the test on NCI-H522 lung and in the test on OVCAR-3 ovarian was > 100 µM throughout. In addition, the TGI with HT29 colon, in the test on M19-MEL melanoma, in the test on MOLT-4 leukemia, with UO-31 renal, in the test on NCI-H23 lung and in the test on OVCAR-4 ovarian was > 100 µM each time. The TGI with NCI-H226 lung, in the test with KM20L2 colon, in the test on RPMI-8226 leukemia, with SF-539 CNS and in the test with SW-620 colon was > 100 µM each time.
`CCCCNC(=O)CCN(C(=O)O)S(=O)(=O)c1ccc(NC(=O)c2ccccc2)cc1`: the TGI with HOP-62 NSCLC, in the test with UACC-62 melanoma, with ACHN renal, in the test on SK-OV-3 ovarian, with NCI-H522 lung and in the test on OVCAR-3 ovarian was > 100 µM throughout. For the same molecule, the TGI in the test on HT29 colon is 49.8 µM; in the test on M19-MEL melanoma, > 100 µM; in the test with MOLT-4 leukemia, > 100 µM; in the test with UO-31 renal it was > 100 µM; in the test on NCI-H23 lung it was > 100 µM; in the test on OVCAR-4 ovarian, > 100 µM. Further, the TGI in the test with NCI-H226 lung is > 100 µM; in the test on KM20L2 colon, > 100 µM; in the test on RPMI-8226 leukemia it was > 100 µM; in the test with SF-539 CNS, > 100 µM; in the test on SW-620 colon, 29.2 µM.
On to `CCc1cccc(CC)c1NC(=O)C1=C(C)NC(C)=C(C(=O)Nc2c(CC)cccc2CC)C1c1ccc2c(c1)OCO2`, for which the TGI with HOP-62 NSCLC is 37.2 µM; in the test with UACC-62 melanoma, 25.6 µM; in the test on ACHN renal, 39 µM; in the test on SK-OV-3 ovarian, 60.6 µM; in the test on NCI-H522 lung, 27.2 µM; in the test with OVCAR-3 ovarian, 27.2 µM. Besides, the TGI in the test with HT29 colon is 30.4 µM; in the test on M19-MEL melanoma, 30.9 µM; with MOLT-4 leukemia, > 100 µM; in the test on UO-31 renal it was 30.8 µM; in the test on NCI-H23 lung, 32.8 µM; with OVCAR-4 ovarian it was 42.9 µM. The TGI was 28.6 µM with NCI-H226 lung; 30.5 µM in the test on KM20L2 colon; > 100 µM with RPMI-8226 leukemia; 37.8 µM in the test with SF-539 CNS; 31.5 µM in the test on SW-620 colon.
